Laboratory results: patent US20230181703A1, “COMPOSITION COMPRISING PEPSTATIN AND ALGINIC ACID OR A SALT THEREOF, AND USE THEREOF” (DRUGS MINERALS AND GENERICS ITALIA S.R.L. IN FORMA …, priority 2020, published 2023)
Converted amounts (≈) assume the structure as drawn. Where a SMILES comes first, the peptide text is derived from it. [ ]: non-standard residue; d: D form. The star is where a group is joined. Sta = CC(C)C[C@H](N)[C@@H](O)CC(=O)O; Isovaleryl = CC(C)CC(=O)*

How the values were obtained:
pepsin = biological target: T1, pepsin (Sus scrofa, UniProt P00791); experiment: Enzymatic activity of pepsin (adapted Anson method, denatured haemoglobin substrate, absorbance at 280 nm); format: biochemical; conditions: for ΔAX at 280 nm: inhibitor 0.01% (suspension in H2O)
T1 construct: purchased BDH
T1 sequence (P00791 60-385): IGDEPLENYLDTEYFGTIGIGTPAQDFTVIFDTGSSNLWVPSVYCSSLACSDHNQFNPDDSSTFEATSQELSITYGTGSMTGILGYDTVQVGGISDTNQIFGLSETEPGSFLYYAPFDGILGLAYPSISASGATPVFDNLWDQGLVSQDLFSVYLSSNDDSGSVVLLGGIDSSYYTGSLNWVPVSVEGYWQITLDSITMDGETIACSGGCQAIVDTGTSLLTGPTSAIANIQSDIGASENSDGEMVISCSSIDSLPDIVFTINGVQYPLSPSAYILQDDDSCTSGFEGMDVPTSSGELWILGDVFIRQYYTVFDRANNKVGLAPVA
Procedure: The method used to measure the enzymatic activity of pepsin alone or together with the inhibitory substance (pepstatin), consists of an adaptation of the Anson method [Anson et al, J. Gen. Physiol. 1931, 16, 59] which provides for the use of denatured haemoglobin as substrate. The enzymatic activity was determined after precipitation with trichloroacetic acid of the non-hydrolysed substrate. The activity of the enzyme was determined spectrophotometrically from the concentration of soluble peptides released by the proteolytic action.
T=37° C., pH=1,5, Anm, optical path 1 cm, reaction time 10 minutes. At pH=1.5, in which the experiments were conducted, there is a maximum activity of pepsin.
Haemoglobin 2%, pepsin 0,02%, inhibitor 0.01%.
Substrate: 250 mg of human haemoglobin are weighed in a 10 mL flask, it is brought up to volume with distilled water and left under stirring for 10 minutes in a water bath at 37° C. to obtain a solution 2.5%. The solution is passed through a filter paper to eliminate insoluble residues. 8 mL of the filtrate are taken and the volume is brought up to 10 mL with acidic water so as to have a final pH finale of 1.5 and a solution 2% (w/V).
Enzyme: 5 mg of pepsin are weighed in a 5 mL flask and it is brought up to volume with acidic water (pH=1.5).
Enzyme together with inhibitory substance: 5 mg of pepsin are weighed in a 5 mL flask. 0.5 mg/mL of a solution or suspension at pH=1.5 of the inhibitory substance are prepared separately (checking the pH with a pH meter and correcting it, if necessary, with hydrochloric acid 12 M in an amount such not to change the total volume). […]
0.25 mL of substrate (haemoglobin) are pipetted in a suitable vial and almost entirely submerged in a water bath thermostated at 37° C. It is left under magnetic stirring for 10 minutes at 37° C. 50 microlitres of the enzyme solution (pepsin) or of the enzyme together with the inhibitory substance (pepsin+pepstatin A) are then added and the system is kept under incubation for exactly 10 minutes. 0.5 mL of the trichloroacetic acid solution 5% are added after this period of time and then left for another 5 minutes. Exactly 3 mL of distilled water at pH=1.5 are added into the vial using a graduated pipette; the solution is stirred and filtered using a 0.45 μm syringe filter. An absorption spectrum (with absorbance (A) always below 1) with wavelengths comprised between 300 nm and 250 nm is recorded using a spectrophotometer using the absorbance value at 280 nm as reference.
Blank: 0.25 mL of substrate (haemoglobin) are pipetted in a suitable vial and almost entirely submerged in a water bath thermostated at 37° C. It is left under magnetic stirring for 10 minutes. 50 microlitres 0.5 mg/mL of the inhibitory substance solution (without enzyme) are then added and the system is kept under incubation for exactly 10 minutes. 0.5 mL of the trichloroacetic acid solution 5% are added after this period of time and then left for another 5 minutes.
50 microlitres of solution 1 mg/mL of enzyme without inhibitory substance are the introduced. Exactly 3 mL of distilled water at pH=1.5 are added into the vial using a graduated pipette, then the solution is stirred and filtered using a 0.45 μm syringe filter. An absorbance with wavelengths comprised between 300 nm and 250 nm is recorded using a spectrophotometer using the absorbance value at 280 nm as reference.
Each experiment was repeated at least twice. The final absorbance value (A) at 280 nm was the mean of the absorbance values obtained (with an uncertainty on the values always much lower than 10%). A ΔA, with ΔAx=A280sample substanceX−A280blank substance X and ΔAo=A280sample free pepsin−A280blank free pepsin in the event of absence of the inhibitory substance are associated with the pepsin-inhibiting substance. […]

physchem = conditions: Solubility in ethanol (EtOH)

## CC(C)CC(=O)N[C@H](C(=O)N[C@H](C(=O)N[C@@H](CC(C)C)[C@@H](O)CC(=O)N[C@@H](C)C(=O)N[C@@H](CC(C)C)[C@@H](O)CC(=O)O)C(C)C)C(C)C [PEPSTATIN, Isovaleryl-L-val-L-val-statyl-L-alanyl-statin] (Isovaleryl-VV[Sta]A[Sta]-OH)
pepsin; pepsin 0.02%, haemoglobin 2%, pH 1.5, 37° C., 10 minutes
  ΔAX at 280 nm: 0
pepsin; pepsin 0.02%, haemoglobin 2%, pH 1.5, 37° C., 10 minutes, listed as Pepstatin
  ΔAX at 280 nm: 0
pepsin; pepsin 0.02%, haemoglobin 2%, pH 1.5, 37° C., 10 minutes, listed as pepstatin
  ΔAX at 280 nm: 0.004
pepsin; inhibitor 0.01%, pepsin 0.02%, haemoglobin 2%, pH 1.5, 37° C., 10 minutes
  Residual activity with respect to the maximum activity measured: 0%
pepsin; pepstatin 1 μM diluted in H2O after dissolution in EtOH 1 mg/mL, added to haemoglobin 2% before pepsin, pH 1.5, 10 min (FIG. 3)
  Activity of pepsin in the presence of pepstatin 1 μM: total abatement in the activity
pepsin; pepstatin 1 μM in haemoglobin 2%, time scale of the experiment t=10 minutes
  Binding between the enzyme and the inhibitor (kinetics study): immediate binding
pepsin; statement in Conclusions, no picomolar test described
  Concentrations at which pepsin is inhibited / totally deactivated: picomolar concentrations
physchem
  solubility: 1000 µg/mL (≈ 1460 µM)
